Source: ChEMBL document CHEMBL5214898 (J Med Chem, 2021)

Assays:
[1] = AUC in Wistar Han rat plasma 10 mg/kg, po measured for 15 to 1440 mins by LC-MS/MS analysis; assay type: ADME, organism-based
[2] = Half life in Wistar Han rat plasma 2 mg/kg, iv by LC-MS/MS analysis; assay type: ADME, organism-based
[3] = Drug uptake in Wistar Han rat plasma 10 mg/kg, po measured after 24 hrs mins by LC-MS/MS analysis; assay type: ADME, organism-based
[4] = Oral bioavailability in Wistar Han rat plasma 10 mg/kg measured for 15 to 1440 mins by LC-MS/MS analysis relative to control; assay type: ADME, organism-based; conditions: time 15-1440 min
[5] = Tmax in Wistar Han rat plasma 10 mg/kg, po measured for 15 to 1440 mins by LC-MS/MS analysis; assay type: ADME, organism-based; conditions: time 15-1440 min
[6] = Clearance in Wistar Han rat plasma 2 mg/kg, iv measured for 2 to 1440 mins by LC-MS/MS analysis; assay type: ADME, organism-based; conditions: time 2-1440 min
[7] = Cmax in Wistar Han rat plasma 10 mg/kg, po measured for 15 to 1440 mins by LC-MS/MS analysis; assay type: ADME, organism-based
[8] = Half life in Beagle dog plasma 1 mg/kg, iv by LC-MS/MS analysis; assay type: ADME, organism-based, Canis lupus familiaris
[9] = Clearance in Beagle dog plasma 1 mg/kg, iv measured for 2 to 1440 mins by LC-MS/MS analysis; assay type: ADME, organism-based, Canis lupus familiaris; conditions: time 2-1440 min
[10] = Cmax in Beagle dog plasma 2 mg/kg, po measured for 15 to 1440 mins by LC-MS/MS analysis; assay type: ADME, organism-based, Canis lupus familiaris
[11] = Drug uptake in Beagle dog plasma 2 mg/kg, po measured after 24 hrs mins by LC-MS/MS analysis; assay type: ADME, organism-based, Canis lupus familiaris
[12] = Oral bioavailability in Beagle dog plasma 2 mg/kg measured for 15 to 1440 mins by LC-MS/MS analysis relative to control; assay type: ADME, organism-based, Canis lupus familiaris; conditions: time 15-1440 min
[13] = Tmax in Beagle dog plasma 2 mg/kg, po measured for 15 to 1440 mins by LC-MS/MS analysis; assay type: ADME, organism-based, Canis lupus familiaris; conditions: time 15-1440 min
[14] = AUC in Beagle dog plasma 2 mg/kg, po measured for 15 to 1440 mins by LC-MS/MS analysis; assay type: ADME, organism-based, Canis lupus familiaris
[15] = Drug uptake in rat at 10 mg/kg measured after 24 hrs; assay type: ADME, organism-based; conditions: in vivo, read-out: Drug uptake
[16] = Drug uptake in rat assessed as unbound concentration at 10 mg/kg measured after 24 hrs; assay type: ADME, organism-based; conditions: in vivo
[17] = Unbound Cmax in rat at 10 mg/kg; assay type: ADME, organism-based; conditions: in vivo
[18] = Cmax in rat at 10 mg/kg; assay type: ADME, organism-based; parameters: dose 10 mg/kg; conditions: in vivo

Q: With CCC(=O)CCCCC[C@H](NC(=O)[C@H]1CC12CCN(C(C)C)CC2)c1ncc(-c2cc3ccc(C)nc3cc2OC)[nH]1 as the molecule, how does the AUC [1] read?
A: The AUC was 0.02 µM·h.

Q: What about the half-life [2] of the same molecule?
A: The half-life was 1440 min.

Q: What about the concentration at 24 h [3] of the same molecule?
A: The concentration at 24 h was 1 nM.

Q: What about the bioavailability [4] of the same molecule?
A: Its bioavailability is 0.6%.

Q: And the Tmax [5]?
A: Its Tmax is 2.1 h.

Q: And the clearance [6]?
A: The clearance was 60 mL/min/kg.

Q: What about the Cmax [7] of the same molecule?
A: The Cmax was 9 nM.

Q: With CCC(=O)CCCCC[C@H](NC(=O)[C@H]1CC12CCN(C)CC2)c1ncc(-c2cc3ccc(C)nc3cc2OC)o1 as the molecule, how does the AUC [1] read?
A: The AUC was 10 µM·h.

Q: What about the half-life [2] of the same molecule?
A: The half-life was 288 min.

Q: And the half-life [8]?
A: The half-life was 2580 min.

Q: And the concentration at 24 h [3]?
A: Its concentration at 24 h is 28 nM.

Q: And the bioavailability [4]?
A: The bioavailability was 78%.

Q: And the clearance [9]?
A: Its clearance is 6 mL/min/kg.

Q: And the Tmax [5]?
A: The Tmax was 4 h.

Q: And the clearance [6]?
A: Its clearance is 25 mL/min/kg.

Q: And the Cmax [7]?
A: Its Cmax is 2500 nM.

Q: And the Cmax [10]?
A: Its Cmax is 72 nM.

Q: And the concentration at 24 h [11]?
A: Its concentration at 24 h is 3.3 nM.

Q: And the bioavailability [12]?
A: The bioavailability was 42%.

Q: And the Tmax [13]?
A: The Tmax was 3 h.

Q: What about the AUC [14] of the same molecule?
A: Its AUC is 0.57 µM·h.

Q: For CCC(=O)CCCCC[C@H](NC(=O)[C@H]1CC12CCN(CC)CC2)c1ncc(-c2cc3ccc(C)nc3cc2OC)[nH]1, which AUC [1] is on record?
A: The AUC was 0.47 µM·h.

Q: And the half-life [2]?
A: The half-life was 780 min.

Q: What about the half-life [8] of the same molecule?
A: Its half-life is 1140 min.

Q: What about the concentration at 24 h [3] of the same molecule?
A: Its concentration at 24 h is 3.2 nM.

Q: What about the bioavailability [4] of the same molecule?
A: Its bioavailability is 7.9%.

Q: And the clearance [9]?
A: The clearance was 24 mL/min/kg.

Q: And the Tmax [5]?
A: The Tmax was 2.1 h.

Q: What about the clearance [6] of the same molecule?
A: The clearance was 51 mL/min/kg.

Q: And the Cmax [7]?
A: Its Cmax is 97 nM.

Q: What about the Cmax [10] of the same molecule?
A: The Cmax was 26 nM.

Q: What about the concentration at 24 h [11] of the same molecule?
A: Its concentration at 24 h is 1.2 nM.

Q: What about the bioavailability [12] of the same molecule?
A: The bioavailability was 4.1%.

Q: What about the Tmax [13] of the same molecule?
A: The Tmax was 1.3 h.

Q: And the AUC [14]?
A: The AUC was 0.1 µM·h.

Q: For CCC(=O)CCCCC[C@H](NC(=O)[C@H]1CC12CCN(C)CC2)c1ncc(-c2cc3ccccc3nc2OC)[nH]1, which concentration at 24 h [15] is on record?
A: The concentration at 24 h was 9 nM.

Q: And the “Drug uptake(free)” value [16]?
A: Its value is 0.11 nM.

Q: What about the fCmax [17] of the same molecule?
A: The fCmax was 7.5 nM.

Q: And the Cmax [18]?
A: Its Cmax is 627 nM.

Q: For CCC(=O)CCCCC[C@H](NC(=O)[C@H]1CC12CCN(C)CC2)c1ncc(-c2ccc3nc(C)ccc3c2)[nH]1, which AUC [1] is on record?
A: The AUC was 0.01 µM·h.

Q: And the half-life [2]?
A: The half-life was 174 min.

Q: And the bioavailability [4]?
A: Its bioavailability is 0.1%.

Q: What about the Tmax [5] of the same molecule?
A: The Tmax was 0.3 h.

Q: And the clearance [6]?
A: The clearance was 45 mL/min/kg.

Q: And the Cmax [7]?
A: Its Cmax is 4 nM.

Q: Which AUC [1] does the source give for CCC(=O)CCCCC[C@H](NC(=O)[C@H]1CC12CCN(C)CC2)c1ncc(-c2cc3cccnc3cc2OC)[nH]1 here?
A: The AUC was 0.06 µM·h.

Q: What about the half-life [2] of the same molecule?
A: Its half-life is 570 min.

Q: And the concentration at 24 h [3]?
A: Its concentration at 24 h is 1 nM.

Q: And the bioavailability [4]?
A: Its bioavailability is 2%.

Q: And the Tmax [5]?
A: Its Tmax is 2.1 h.

Q: What about the clearance [6] of the same molecule?
A: The clearance was 61 mL/min/kg.

Q: And the Cmax [7]?
A: Its Cmax is 20 nM.

Q: Which AUC [1] does the source give for CCC(=O)CCCCC[C@H](NC(=O)[C@H]1CC12CCN(CC)CC2)c1ncc(-c2cc3cn(C)nc3cc2OC)o1 here?
A: The AUC was 2.3 µM·h.

Q: What about the half-life [2] of the same molecule?
A: The half-life was 306 min.

Q: What about the concentration at 24 h [3] of the same molecule?
A: Its concentration at 24 h is 3.6 nM.

Q: And the bioavailability [4]?
A: Its bioavailability is 37%.

Q: What about the Tmax [5] of the same molecule?
A: The Tmax was 4 h.

Q: What about the clearance [6] of the same molecule?
A: Its clearance is 49 mL/min/kg.

Q: And the Cmax [7]?
A: Its Cmax is 510 nM.

Q: For CCC(=O)CCCCC[C@H](NC(=O)[C@H]1CC12CCN(C)CC2)c1ncc(-c2cc3ccc(C)nc3cc2OC)[nH]1, which AUC [1] is on record?
A: The AUC was 0.98 µM·h.

Q: What about the half-life [2] of the same molecule?
A: Its half-life is 1980 min.

Q: And the concentration at 24 h [3]?
A: Its concentration at 24 h is 8.9 nM.

Q: What about the bioavailability [4] of the same molecule?
A: Its bioavailability is 2.5%.

Q: And the Tmax [5]?
A: Its Tmax is 5 h.

Q: And the clearance [6]?
A: The clearance was 12 mL/min/kg.

Q: What about the Cmax [7] of the same molecule?
A: Its Cmax is 170 nM.

Q: What does the source list for CCC(=O)CCCCC[C@H](NC(=O)[C@H]1CC12CCN(CC)CC2)c1ncc(-c2cc3ccc(C)nc3cc2OC)o1?
A: AUC [1]: 1.1 µM·h; half-life [2]: 324 min; half-life [8]: 5460 min; concentration at 24 h [3]: 7.2 nM; bioavailability [4]: 25%; clearance [9]: 2.9 mL/min/kg; Tmax [5]: 5 h; clearance [6]: 65 mL/min/kg; Cmax [7]: 150 nM; Cmax [10]: 15 nM; concentration at 24 h [11]: 2 nM; bioavailability [12]: 11%; Tmax [13]: 3 h; AUC [14]: 0.07 µM·h

Q: With CCC(=O)CCCCC[C@H](NC(=O)[C@H]1CC12CCN(CC)CC2)c1ncc(-c2cc3cccnc3nc2OC)o1 as the molecule, how does the AUC [1] read?
A: Its AUC is 9.7 µM·h.

Q: What about the half-life [2] of the same molecule?
A: The half-life was 234 min.

Q: What about the concentration at 24 h [3] of the same molecule?
A: The concentration at 24 h was 9.2 nM.

Q: What about the bioavailability [4] of the same molecule?
A: The bioavailability was 20%.

Q: And the Tmax [5]?
A: The Tmax was 3 h.

Q: And the clearance [6]?
A: The clearance was 6 mL/min/kg.

Q: And the Cmax [7]?
A: Its Cmax is 2100 nM.

Q: Which AUC [1] does the source give for CCC(=O)CCCCC[C@H](NC(=O)[C@H]1CC12CCN(C)CC2)c1ncc(-c2cc3ccc(C)nc3cc2F)o1 here?
A: The AUC was 0.3 µM·h.

Q: What about the half-life [2] of the same molecule?
A: The half-life was 114 min.

Q: What about the concentration at 24 h [3] of the same molecule?
A: Its concentration at 24 h is 1 nM.

Q: And the bioavailability [4]?
A: Its bioavailability is 6.9%.

Q: What about the Tmax [5] of the same molecule?
A: Its Tmax is 2 h.

Q: What about the clearance [6] of the same molecule?
A: Its clearance is 71 mL/min/kg.

Q: What about the Cmax [7] of the same molecule?
A: Its Cmax is 63 nM.

Q: Which AUC [1] does the source give for CCC(=O)CCCCC[C@H](NC(=O)[C@H]1CC12CCN(CC)CC2)c1ncc(-c2cc3ccn(CC)c(=O)c3cc2OC)o1 here?
A: The AUC was 0.6 µM·h.

Q: And the half-life [2]?
A: Its half-life is 390 min.

Q: And the concentration at 24 h [3]?
A: The concentration at 24 h was 2.2 nM.

Q: And the bioavailability [4]?
A: The bioavailability was 22%.

Q: And the Tmax [5]?
A: Its Tmax is 5 h.

Q: And the clearance [6]?
A: Its clearance is 100 mL/min/kg.

Q: And the Cmax [7]?
A: The Cmax was 120 nM.
